For orientation: IC50 means the concentration needed to halve the response being measured. In general, melting point refers to the temperature of the solid-liquid transition.

The source of these data is US20130109693A1, “DERIVATIVES OF PYRIDO [3,2-D] PYRIMIDINE, METHODS FOR PREPARATION THEREOF AND THERAPEUTIC USES THEREOF” (UNIVERSITE D'ORLEANS, priority 2010, published 2013).

The test system of one data set is Huh7. As to the kind of experiment: Cytotoxicity on human cells, Huh7 (liver). The conditions noted are these: Huh-7, human cells, exposed 24 h and 48 h, 0.1 to 25 μM. The class given is cell-based. The method in brief: (§1)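 Cells (4.10^3 per well) were allowed 24 h to attach, then exposed 24 h and 48 h to compounds at 0.1 to 25 μM in DMEM or RPMI with 10% foetal calf serum at 37° C., 5% CO2. Nuclei were fixed with 4% paraformaldehyde, Hoechst-stained and counted by automated imaging; viability was also measured by MTS reduction.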

For another data set, the system named is Caco. As to the kind of experiment: Cytotoxicity on human cells, Caco (colon). The class given is cell-based. The conditions noted are these: exposed 24 h and 48 h, 0.1 to 25 μM. The method, boiled down:
as §1

The subject of a further data set is MDA-MB 231. Description: Cytotoxicity on human cells, MDA-MB 231 (breast). Format: cell-based. The conditions noted are these: MDA-MB-231, human cells, exposed 24 h and 48 h, 0.1 to 25 μM. The method in brief:
as §1

The test system of a further data set is HCT 116. As to the kind of experiment: Cytotoxicity on human cells, HCT 116 (colon). The class given is cell-based. The conditions noted are these: exposed 24 h and 48 h, 0.1 to 25 μM. The method in brief:
as §1

In a further data set the test system is PC3. As to the kind of experiment: Cytotoxicity on human cells, PC3 (prostate). The class given is cell-based. The conditions noted are these: PC-3, human cells, exposed 24 h and 48 h, 0.1 to 25 μM. The method in brief:
as §1

The next data set has as its system NCI. As to the kind of experiment: Cytotoxicity on human cells, NCI (lung). The class given is cell-based. The conditions noted are these: exposed 24 h and 48 h, 0.1 to 25 μM. The method, boiled down: as §1
In another data set the test system is fibroblast. Description: Cytotoxicity on human cells, fibroblast. Format: cell-based. The conditions noted are these: exposed 24 h and 48 h, 0.1 to 25 μM. The method in brief:
as §1

A further data set has as its target DYRK1A (Homo sapiens, UniProt Q13627). Description: DYRK1A kinase inhibition (Woodtide substrate, buffer A). Format: biochemical. The conditions noted are these: 15 μM ATP, 30° C., recombinant GST fusion; read-out: IC50 Kinases DYRK1A. The method in brief: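 Kinase activity measured in buffer A (10 mM MgCl2, 1 mM EGTA, 1 mM DTT, 25 mM Tris-HCl pH 7.5, 50 μg/mL heparin) at 30° C with 15 μM final ATP. Blanks subtracted; activity expressed as % of maximum activity without inhibitor, with DMSO dilutions as controls.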

In a further data set the target is T1, CDK5 (Homo sapiens, UniProt Q00535).
T1 construct: made in house
Description: CDK5 kinase inhibition (histone H1, [γ-33P] ATP, buffer C). Format: biochemical. The conditions noted are these: 15 μM ATP, 30° C., recombinant; read-out: IC50 Kinases CDK5. The method in brief:
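Recombinant human CDK5 phosphorylating histone H1 (1 mg/mL) in buffer C (25 mM Mops pH 7.2, 15 mM MgCl2, 1 mM DTT) with 15 μM [γ-33P]ATP, 30 min at 30 °C. Incorporation counted on P81 phosphocellulose; activity as % of uninhibited control after blank subtraction.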

The target in the next data set is GSK-3αβ. As to the kind of experiment: GSK-3αβ kinase inhibition (GS-1 substrate, buffer A). Format: biochemical. The conditions noted are these: 15 μM ATP, 30° C., native, pig brain; read-out: IC50 Kinases GSK3. The method, boiled down:
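Native pig-brain GSK-3αβ with GS-1 phosphopeptide substrate in buffer A (25 mM Tris-HCl pH 7.5, 10 mM MgCl2, 1 mM EGTA, 1 mM DTT, 50 μg/mL heparin), 1 mg/mL histone H1 and 15 μM [γ-33P]ATP, 30 min at 30° C. Phosphocellulose filter binding counted; activity as % of uninhibited maximum, blank subtracted.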

Bounds are passed on as bounds.

T1 sequence (Q00535 whole entry): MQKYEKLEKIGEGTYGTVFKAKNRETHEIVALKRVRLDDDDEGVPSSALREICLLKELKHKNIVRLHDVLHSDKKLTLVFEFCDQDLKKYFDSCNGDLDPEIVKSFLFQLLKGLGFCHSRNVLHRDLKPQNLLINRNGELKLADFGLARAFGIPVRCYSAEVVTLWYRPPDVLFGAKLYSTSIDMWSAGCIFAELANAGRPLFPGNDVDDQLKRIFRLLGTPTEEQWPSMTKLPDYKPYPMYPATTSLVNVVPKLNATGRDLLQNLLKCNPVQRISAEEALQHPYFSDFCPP
T1 sequence (Q15078 99-307 partner limits assumed): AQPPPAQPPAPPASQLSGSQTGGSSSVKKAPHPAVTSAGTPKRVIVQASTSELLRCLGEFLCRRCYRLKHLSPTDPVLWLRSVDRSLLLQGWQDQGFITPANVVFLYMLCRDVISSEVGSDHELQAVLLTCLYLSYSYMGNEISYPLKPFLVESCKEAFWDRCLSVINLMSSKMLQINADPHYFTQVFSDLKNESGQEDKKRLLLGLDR

`CS(=O)(=O)c1ccc(-c2cnc3cnc(-c4ccc(O)cc4)nc3c2)cc1` [Compound 26, 2-(4-Hydroxyphenyl)-7-(4-methanesulfonylphenyl)-pyrido[3,2-d]pyrimidine] displayed a melting point of 306 to 307 °C. Moreover, in the data set on Huh7, the IC50 is > 25 µM. In addition, in the data set with Caco, the concentration for half-maximal inhibition (IC50) is > 25 µM. Besides, the IC50 with MDA-MB 231 was > 25 µM. Also, in the data set with HCT 116, the IC50 was > 25 µM. The IC50 with PC3 was > 25 µM. In addition, in the data set with NCI, the concentration for half-maximal inhibition (IC50) was > 25 µM. Also, the IC50 in the data set on fibroblast is > 25 µM. The IC50 at DYRK1A was > 10 µM. On CDK5, the IC50 was determined as 0.48 µM. For the same compound, on GSK-3αβ, the half-maximal inhibitory concentration (IC50) was > 100 µM.

Consider `Oc1ccc(-c2ncc3ncc(-c4ccc(C(F)(F)F)cc4)cc3n2)cc1` [Compound 25, 2-(4-Hydroxyphenyl)-7-(4-trifluoromethylphenyl)-pyrido[3,2-d]pyrimidine], for which the melting point lay within 203 to 204 °C. In addition, the IC50 in the data set on Huh7 worked out at 25 µM. Also, the IC50 in the data set on Caco is > 25 µM. For the same compound, in the data set on MDA-MB 231, the IC50 was > 25 µM. The IC50 with HCT 116 is > 25 µM. Further, the IC50 in the data set with PC3 was > 25 µM. In the data set with NCI, this compound had an IC50 of 20 µM. In addition, in the data set with fibroblast, the IC50 is > 25 µM. In addition, the IC50 at DYRK1A stood at 24 µM. In addition, the IC50 on CDK5 worked out at 0.97 µM. Moreover, the IC50 on GSK-3αβ was ≥ 100 µM.

Consider `Oc1ccc(-c2ncc3ncc(-c4ccncc4)cc3n2)cc1` [Compound 34, 2-(4-Hydroxyphenyl)-7-(4-pyridinyl)-pyrido[3,2-d]pyrimidine], for which the melting point is > 268 °C. Also, in the data set with Huh7, the IC50 was > 25 µM. The half-inhibitory concentration (IC50) in the data set on Caco was > 25 µM. Also, in the data set on MDA-MB 231, the IC50 was > 25 µM. For the same compound, in the data set with HCT 116, the IC50 was found to be 10 µM. Also, in the data set on PC3, the IC50 was > 25 µM. This compound also showed an IC50 in the data set with NCI of 5 µM. The compound further displayed an IC50 with fibroblast of 15 µM. Further, on DYRK1A, the IC50 is > 10 µM. At CDK5, the IC50 worked out at 0.13 µM. On GSK-3αβ, the IC50 is > 10 µM.

With `Oc1ccc(-c2ncc3ncc(-c4cccnc4)cc3n2)cc1` [Compound 33, 2-(4-Hydroxyphenyl)-7-(3-pyridinyl)-pyrido[3,2-d]pyrimidine], the melting point was > 268 °C. Further, in the data set on Huh7, the IC50 is > 25 µM. In the data set with Caco, the IC50 was > 25 µM. In the data set with MDA-MB 231, the IC50 was > 25 µM. In addition, the IC50 with HCT 116 was > 25 µM. The IC50 with PC3 was > 25 µM. Besides, the IC50 in the data set with NCI is > 25 µM. Moreover, the IC50 in the data set with fibroblast is > 25 µM. The IC50 on DYRK1A is > 10 µM. Further, the IC50 on CDK5 is 0.65 µM. Moreover, the IC50 at GSK-3αβ is > 10 µM.
